{
  "source": "patent US6846182B1",
  "about": "“Dental bleaching composition and method” (priority 1996, dated 2005)",
  "method": "Fluoride has been used in dentistry to reduce sensitivity for many years. Often, when the root surface of teeth is exposed to the oral cavity due to gingival recession, these teeth become sensitive to hot, cold and sometimes sweets. […] This post bleaching pain usually has an onset of about 2 hours post-bleaching and lasts for 2 or more days.",
  "data": [
    {"substance": "neutral sodium fluoride", "values": [
      {"measurement": "post-bleaching pain level", "setting": "applied 5 minutes post bleaching", "result": "often diminished"},
      {"measurement": "post-bleaching sensitivity", "setting": "applied at least 10 minutes after bleaching is completed", "result": "almost completely eliminated"}
    ]}
  ]
}
